Reference: article PMC6325200, “Effects of Microplate Type and Broth Additives on Microdilution MIC Susceptibility Assays” (Antimicrobial Agents and Chemotherapy, 2018)
Values after ≈ are worked out from the molar mass of the structure shown.

Experiments:
[1] = tested on: E. coli ATCC 25922; assay: microbe, parasite or virus in culture; conditions: n = 2
Method in brief: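 Broth microdilution with 2-fold serial compound dilutions in MH broth, using cultures diluted 40-fold and grown at 37°C for 2 to 3 h, with or without Tween. Variants included 2% beractant added to mid-log cultures, or 50% human serum in MHB.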

[2] = tested on: E. coli; conditions: literature value; cited from earlier work
[3] = tested on: P. aeruginosa ATCC 10145; assay: microbe, parasite or virus in culture; conditions: Pseudomonas aeruginosa, n = 2
Method in brief: (§1)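 Every plate included two controls, one row of bacteria alone and one of medium only. Test agents and standard antibiotics underwent twofold dilution series in 96-well format, and cultures were diluted 40-fold into MH broth in the presence or absence of Tween before 2–3 h at 37°C.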

[4] = tested on: A. baumannii ATCC 19606; assay: microbe, parasite or virus in culture; conditions: Acinetobacter baumannii, n = 2
Method in brief: as §1

[5] = tested on: K. pneumoniae ATCC 13883; assay: microbe, parasite or virus in culture; conditions: Klebsiella pneumoniae, n = 2
Method in brief: as §1

SMILES: COc1cc(Cc2cnc(N)nc2N)cc(OC)c1OC [Trimethoprim, trimethoprim]
- MIC ([1]; Corning NBS plate, MHB −T80, no additive): 0.25 to 0.5 µg/mL
- MIC ([1]; Corning PS plate, MHB +0.002% T80, no further additive): 1 to 2 µg/mL
- MIC ([1]; Corning PS plate, MHB −T80, no additive): 0.25 to 0.5 µg/mL
- MIC ([1]; Corning TC plate, MHB +0.002% T80, no further additive): 0.5 to 1 µg/mL
- MIC ([1]; Corning TC plate, MHB −T80, no additive): 0.25 to 0.5 µg/mL
- MIC ([1]; Escherichia coli, ATCC25922, 24 h, Corning NBS, MH + 2% LHB, 2% LS): 1 µg/mL
- MIC ([1]; Escherichia coli, ATCC25922, 24 h, Corning NBS, MH + 2% LHB, 50% HS): 1 to 2 µg/mL
- MIC ([1]; Escherichia coli, ATCC25922, 24 h, Corning NBS, MH + 2% LHB, no additive): 1 µg/mL
- MIC ([1]; Escherichia coli, ATCC25922, 24 h, Corning NBS, MH + T80, 2% LS): 2 µg/mL
- MIC ([1]; Escherichia coli, ATCC25922, 24 h, Corning NBS, MH + T80, 50% HS): 2 µg/mL
- MIC ([1]; Escherichia coli, ATCC25922, 24 h, Corning PS, MH + 2% LHB, 2% LS): 1 to 2 µg/mL
- MIC ([1]; Escherichia coli, ATCC25922, 24 h, Corning PS, MH + 2% LHB, 50% HS): 1 to 8 µg/mL
- MIC ([1]; Escherichia coli, ATCC25922, 24 h, Corning PS, MH + 2% LHB, no additive): 1 to 2 µg/mL
- MIC ([1]; Escherichia coli, ATCC25922, 24 h, Corning PS, MH + T80, 2% LS): 1 to 2 µg/mL
- MIC ([1]; Escherichia coli, ATCC25922, 24 h, Corning PS, MH + T80, 50% HS): 1 to 2 µg/mL
- MIC ([1]; Escherichia coli, ATCC25922, 24 h, Corning TC, MH + 2% LHB, 2% LS): 1 to 2 µg/mL
- MIC ([1]; Escherichia coli, ATCC25922, 24 h, Corning TC, MH + 2% LHB, 50% HS): 1 to 2 µg/mL
- MIC ([1]; Escherichia coli, ATCC25922, 24 h, Corning TC, MH + 2% LHB, no additive): 1 µg/mL
- MIC ([1]; Escherichia coli, ATCC25922, 24 h, Corning TC, MH + T80, 2% LS): 1 to 2 µg/mL
- MIC ([1]; Escherichia coli, ATCC25922, 24 h, Corning TC, MH + T80, 50% HS): 1 to 2 µg/mL
- MIC ([1]; Escherichia coli, ATCC25922, 24 h, Trek PS, MH + 2% LHB, 2% LS): 0.5 to 1 µg/mL
- MIC ([1]; Escherichia coli, ATCC25922, 24 h, Trek PS, MH + 2% LHB, 50% HS): 1 µg/mL
- MIC ([1]; Escherichia coli, ATCC25922, 24 h, Trek PS, MH + 2% LHB, no additive): 1 µg/mL
- MIC ([1]; Escherichia coli, ATCC25922, 24 h, Trek PS, MH + T80, 2% LS): 2 µg/mL
- MIC ([1]; Escherichia coli, ATCC25922, 24 h, Trek PS, MH + T80, 50% HS): 2 to 4 µg/mL
- MIC ([1]; Escherichia coli, ATCC25922, Corning NBS plate, MHB +0.002% T80, no further additive): 1 µg/mL (≈ 3.44 µM)
- MIC ([1]; Escherichia coli, ATCC25922, Corning NBS plate, MHB −T80, no additive): 0.25 to 0.5 µg/mL (≈ 0.861 to 1.72 µM)
- MIC ([1]; Escherichia coli, ATCC25922, Corning NBS, MH, 2% LS): 1 to 2 µg/mL (≈ 3.44 to 6.89 µM)
- MIC ([1]; Escherichia coli, ATCC25922, Corning NBS, MH, 50% HS): 1 to 2 µg/mL (≈ 3.44 to 6.89 µM)
- MIC ([1]; Escherichia coli, ATCC25922, Corning PS plate, MHB +0.002% T80, no further additive): 1 to 2 µg/mL (≈ 3.44 to 6.89 µM)
- MIC ([1]; Escherichia coli, ATCC25922, Corning PS plate, MHB −T80, no additive): 0.25 to 0.5 µg/mL (≈ 0.861 to 1.72 µM)
- MIC ([1]; Escherichia coli, ATCC25922, Corning PS, MH, 2% LS): 1 µg/mL (≈ 3.44 µM)
- MIC ([1]; Escherichia coli, ATCC25922, Corning PS, MH, 50% HS): 1 to 2 µg/mL (≈ 3.44 to 6.89 µM)
- MIC ([1]; Escherichia coli, ATCC25922, Corning TC plate, MHB +0.002% T80, no further additive): 0.5 to 1 µg/mL (≈ 1.72 to 3.44 µM)
- MIC ([1]; Escherichia coli, ATCC25922, Corning TC plate, MHB −T80, no additive): 0.25 to 0.5 µg/mL (≈ 0.861 to 1.72 µM)
- MIC ([1]; Escherichia coli, ATCC25922, Corning TC, MH, 2% LS): 1 to 2 µg/mL (≈ 3.44 to 6.89 µM)
- MIC ([1]; Escherichia coli, ATCC25922, Corning TC, MH, 50% HS): 0.5 to 1 µg/mL (≈ 1.72 to 3.44 µM)
- MIC ([1]; Escherichia coli, ATCC25922, Nunc PS plate, MHB +0.002% T80): 0.25 to 0.5 µg/mL (≈ 0.861 to 1.72 µM)
- MIC ([1]; Escherichia coli, ATCC25922, Nunc PS plate, MHB −T80): 0.25 µg/mL (≈ 0.861 µM)
- MIC ([1]; Escherichia coli, ATCC25922, Nunc U TC plate, MHB +0.002% T80): 0.25 to 0.5 µg/mL (≈ 0.861 to 1.72 µM)
- MIC ([1]; Escherichia coli, ATCC25922, Nunc U TC plate, MHB −T80): 0.25 to 0.5 µg/mL (≈ 0.861 to 1.72 µM)
- MIC ([1]; Escherichia coli, ATCC25922, Nunc flat TC plate, MHB +0.002% T80): 0.25 to 0.5 µg/mL (≈ 0.861 to 1.72 µM)
- MIC ([1]; Escherichia coli, ATCC25922, Nunc flat TC plate, MHB −T80): 0.25 to 0.5 µg/mL (≈ 0.861 to 1.72 µM)
- MIC ([1]; Escherichia coli, ATCC25922, Trek PS plate, MHB +0.002% T80, no further additive): 2 µg/mL (≈ 6.89 µM)
- MIC ([1]; Escherichia coli, ATCC25922, Trek PS plate, MHB −T80, no additive): 0.5 to 1 µg/mL (≈ 1.72 to 3.44 µM)
- MIC ([1]; Escherichia coli, ATCC25922, Trek PS, MH, 2% LS): 1 to 4 µg/mL (≈ 3.44 to 13.8 µM)
- MIC ([1]; Escherichia coli, ATCC25922, Trek PS, MH, 50% HS): 1 µg/mL (≈ 3.44 µM)
- MIC ([1]; Trek PS plate, MHB −T80, no additive): 0.5 to 1 µg/mL
- MIC (literature) [2]: 0.06–0.25 ([72]) µg/ml
- MIC ([3]; ATCC10145, Corning NBS, MHB +T80): > 64 µg/mL
- MIC ([3]; ATCC10145, Corning NBS, MHB -T80): > 64 µg/mL
- MIC ([3]; ATCC10145, Corning PS, MHB +T80): > 64 µg/mL
- MIC ([3]; ATCC10145, Corning PS, MHB -T80): > 64 µg/mL
- MIC ([3]; ATCC10145, Corning TC, MHB +T80): > 64 µg/mL
- MIC ([3]; ATCC10145, Corning TC, MHB -T80): > 64 µg/mL
- MIC ([4]; ATCC19606, Corning NBS, MHB +T80): 64 µg/mL (≈ 220 µM)
- MIC ([4]; ATCC19606, Corning NBS, MHB -T80): 16 to 32 µg/mL (≈ 55.1 to 110 µM)
- MIC ([4]; ATCC19606, Corning PS, MHB +T80): > 64 µg/mL
- MIC ([4]; ATCC19606, Corning PS, MHB -T80): > 64 µg/mL
- MIC ([4]; ATCC19606, Corning TC, MHB +T80): 32 to 64 µg/mL (≈ 110 to 220 µM)
- MIC ([4]; ATCC19606, Corning TC, MHB -T80): 16 to 32 µg/mL (≈ 55.1 to 110 µM)
- MIC ([5]; ATCC13883, Corning NBS, MHB +T80): 1 to 2 µg/mL (≈ 3.44 to 6.89 µM)
- MIC ([5]; ATCC13883, Corning NBS, MHB -T80): 4 to 8 µg/mL (≈ 13.8 to 27.6 µM)
- MIC ([5]; ATCC13883, Corning PS, MHB +T80): 2 to 4 µg/mL (≈ 6.89 to 13.8 µM)
- MIC ([5]; ATCC13883, Corning PS, MHB -T80): 1 to 8 µg/mL (≈ 3.44 to 27.6 µM)
- MIC ([5]; ATCC13883, Corning TC, MHB +T80): 4 to 16 µg/mL (≈ 13.8 to 55.1 µM)
- MIC ([5]; ATCC13883, Corning TC, MHB -T80): 4 to 16 µg/mL (≈ 13.8 to 55.1 µM)
